{"source": "PubChem BioAssay AID1996"}
{"conditions": "buffer; pH 7.4; 200.0 µM", "units": {"solubility kinetic": "µg/mL"}}
{"smiles": "COc1ccc(NC(=O)COc2ccccc2Cc2ccccc2)cn1", "solubility kinetic": 12.2}
{"smiles": "OCCN1CCN(CC(O)C(F)(F)F)CC1", "note": "(stereo unspecified)", "solubility kinetic": "> 36.3"}
{"smiles": "Cc1cc(C)cc(C(=O)Nc2ccncc2)c1", "solubility kinetic": "> 33.9"}
{"smiles": "O=C(O)c1ccc2c(c1)C(=O)N(c1ccc(Nc3ccccc3)cc1)C2=O", "solubility kinetic": 51.6}
{"smiles": "Cn1c(=O)c2c(nc(Sc3ccccc3N)n2C)n(C)c1=O", "solubility kinetic": 39.1}
{"smiles": "N#Cc1ccc(OCC(=O)Nc2ccc3[nH]c(=O)[nH]c3c2)cc1", "solubility kinetic": 7.3}
{"smiles": "COCCOC(=O)C1=C(C)NC(=S)NC1c1cccs1", "note": "(stereo unspecified)", "solubility kinetic": "> 46.9"}
{"smiles": "CNC(=S)N(CCCn1ccnc1)Cc1c(F)cccc1Cl", "solubility kinetic": 49}
{"smiles": "CCOC(=O)C1CCCN(Cc2cccc(Oc3ccccc3)c2)C1", "note": "(stereo unspecified)", "solubility kinetic": 3.1}
{"smiles": "O=C(O)C1CN(C(=O)c2ccccc2)c2cc(Cl)ccc2O1", "note": "(stereo unspecified)", "solubility kinetic": "> 47.7"}
{"smiles": "Cc1cccc(NC(=O)CN2CCOCC2)c1C", "solubility kinetic": "> 37.2"}
{"smiles": "COCCCNc1ncnc2c1nc1n2CCCC1", "solubility kinetic": "> 39.2"}
{"smiles": "CC1CN(C)C(C)CC1OC(=O)C(c1ccccc1)c1ccccc1", "note": "(stereo unspecified)", "solubility kinetic": 42.1}
{"smiles": "N#C/C(=C\\c1ccccc1Cl)C(=O)Nc1ccccn1", "solubility kinetic": 37.7}
{"smiles": "c1ccc(-c2nc3ccccc3[nH]2)cc1", "solubility kinetic": 21.9}
{"smiles": "O=C(CSc1ncnc2ccccc12)N1CCNC1=O", "solubility kinetic": "> 43.2"}
{"smiles": "CCOc1ccccc1NC(=O)Nc1ccc2c(c1)OCO2", "solubility kinetic": 2.8}
{"smiles": "CCc1sc(C(=O)N2CCCN(C)CC2)cc1Br", "solubility kinetic": 46.5}
{"smiles": "COc1ccccc1CNC(=O)c1nccnc1CO", "solubility kinetic": "> 41"}
{"smiles": "Cc1cc(C(=O)Nc2ccc(Br)cc2)cs1", "solubility kinetic": 0.7}
{"smiles": "COc1ccc(C(=O)OCc2cc(=O)n3ccsc3n2)cc1F", "solubility kinetic": 4}
{"smiles": "COc1cc(C(=O)NC(=S)N2CCN(C)CC2)cc(OC)c1OC", "solubility kinetic": "> 53"}
{"smiles": "N/C(=N\\O)c1cn(Cc2ccccc2Cl)c2ccccc12", "solubility kinetic": 39.4}
{"smiles": "Cc1nc2ccccc2n1Cc1ccccc1", "solubility kinetic": 32.9}
{"smiles": "Cc1ccc(SCc2ccc(C(=O)Nc3nccs3)o2)cc1", "solubility kinetic": 2.2}
{"smiles": "CCOC(=O)c1c(Cc2ccccc2)c[nH]c1C", "solubility kinetic": 30.9}
{"smiles": "Cc1cnc(C(=O)OCC(=O)Nc2ccccc2[N+](=O)[O-])cn1", "solubility kinetic": "> 47.4"}
{"smiles": "CCn1c(/C=C/c2ccc(F)cc2)nc2ccccc2c1=O", "solubility kinetic": 1.6}
{"smiles": "Cc1nc(N2CCOCC2)nc(Oc2ccccc2F)c1[N+](=O)[O-]", "solubility kinetic": 1.5}
{"smiles": "CCCCc1ccc(NC(=O)Nc2cccnc2)cc1", "solubility kinetic": 4}
{"smiles": "CCC(C)[C@H](NC(=O)NCc1ccc(F)cc1)C(=O)O", "note": "(stereo partly specified)", "solubility kinetic": "> 42.3"}
{"smiles": "CC1CCCC(NC(=O)C2CC(=O)N(Cc3ccccc3)C2)C1C", "note": "(stereo unspecified)", "solubility kinetic": 37.4}
{"smiles": "O=Cc1cc([N+](=O)[O-])ccc1N1CCN(Cc2ccc3c(c2)OCO3)CC1", "solubility kinetic": 12.2}
{"smiles": "O=C(O)c1cccnc1SCC(=O)C12CC3CC(CC(C3)C1)C2", "solubility kinetic": "> 49.7"}
{"smiles": "Cl.O=C(c1cc2ccccc2o1)N1CCN(Cc2ccccc2)CC1", "solubility kinetic": 41.5}
{"smiles": "Cn1c(N)c(C(=O)COC(=O)/C=C/c2cccc(Cl)c2)c(=O)n(C)c1=O", "solubility kinetic": 3.3}
{"smiles": "CC(=O)C(CC(=O)N1CCCC1)C(=O)Nc1ccc(Cl)cc1", "note": "(stereo unspecified)", "solubility kinetic": "> 48.4"}
{"smiles": "O=C(CSc1ncccn1)NC1CCCc2ccccc21", "note": "(stereo unspecified)", "solubility kinetic": 42.5}
{"smiles": "Cl.c1ccc(NCc2cccc3ccccc23)nc1", "solubility kinetic": 4.1}
{"smiles": "CC(C)c1ccccc1NC(=O)CC1(CC(=O)O)CCCC1", "solubility kinetic": "> 45.5"}
{"smiles": "Cn1cccc1C(=O)/C(C#N)=C/c1ccc(F)cc1", "solubility kinetic": 36.3}
{"smiles": "NC1=NC(c2ccc(Cl)cc2)C(C(=O)c2ccccc2)N1", "note": "(stereo unspecified)", "solubility kinetic": 4.9}
{"smiles": "COc1ccc(C=NNC(=O)c2cc(C)oc2C)cc1O", "solubility kinetic": "> 43.2"}
{"smiles": "CCOn1c(=O)c(=O)n(OC)c2ccccc21", "solubility kinetic": "> 35.4"}
{"smiles": "CCCn1c(=O)c2[nH]cnc2n(-c2ccc(Cl)cc2)c1=O", "solubility kinetic": 44.9}
{"smiles": "O=C(c1ccc2ccccc2c1)N1CCCCC1", "solubility kinetic": "> 35.9"}
{"smiles": "COC(=O)c1cccc(NC(=O)NC(=O)c2ccccc2Cl)c1", "solubility kinetic": 0.6}
{"smiles": "O=C(CC1CCCCC1)NCc1ccco1", "solubility kinetic": "> 33.2"}
{"smiles": "CNC(=O)CSc1nnc(-c2ccco2)n1-c1ccccc1", "solubility kinetic": "> 47.2"}
{"smiles": "O=C(O)c1ccccc1N(Cc1ccccc1)C(=O)COc1ccccc1", "solubility kinetic": "> 54.2"}
{"smiles": "Cc1ccc(NC(=O)C(C)N2C(=O)c3ccccc3C2=O)c(C)c1", "note": "(stereo unspecified)", "solubility kinetic": 29.7}
{"smiles": "CN(CCc1ccccn1)c1ccc([N+](=O)[O-])cn1", "solubility kinetic": 38.1}
{"smiles": "COc1cccc(NC(=O)c2cnc[nH]2)c1", "solubility kinetic": 30.5}
{"smiles": "Cc1nc(-c2ccc(NC(=O)c3ccc(Br)o3)cc2)cs1", "solubility kinetic": "< 0.4"}
{"smiles": "Cc1cccc(NC(=O)c2c(O)c3ccccc3n(C)c2=O)c1", "solubility kinetic": "< 0.3"}
{"smiles": "COc1ccc(/C=C(\\C#N)C(=O)NC(C)c2ccccc2)cc1O", "note": "(stereo unspecified)", "solubility kinetic": 18.3}
{"smiles": "O=C1CC2(CCN(C(=O)c3ccc(F)c(F)c3)CC2)Oc2ccccc21", "solubility kinetic": "> 53.6"}
{"smiles": "O=C(OCC(=O)N1CCOCC1)c1cc(F)c(F)cc1Cl", "solubility kinetic": "> 48"}
{"smiles": "CN(CC(=O)Nc1ccc(C(N)=O)cc1)S(=O)(=O)c1ccc2c(c1)OCCO2", "solubility kinetic": 9.4}
{"smiles": "Cc1nonc1NC(=O)c1oc2ccc(F)cc2c1C", "solubility kinetic": 0.7}
{"smiles": "CC(=O)Oc1ccc(-c2cccc(C(=O)N3CCCCC3)c2)cc1", "solubility kinetic": 40.8}
